Measurements: ChEMBL document CHEMBL4396868, “Discovery of Potent, Selective, and Brain-Penetrant 1 H-Pyrazol-5-yl-1 H-pyrrolo[2,3- b]pyridines as Anaplastic Lymphoma Kinase (ALK) Inhibitors” (J Med Chem, 2019)
The source made the active and inactive calls. The rule behind the calls is not given here.

Assays:
Mus musculus [1] = test: In-vivo inhibition of ALK in ip dosed ICR mouse hippocampus assessed as reduction in phosphorylated ALK level after 1 hr by Western blot analysis; type: functional, organism-based
[2] = target: Mitogen-activated protein kinase 3 (Homo sapiens) (UniProt P27361); test: Inhibition of N-terminal FLAG-tagged ERK1 (unknown origin) expressed in baculovirus expression system at 100 nM using myelin basic protein as substrate preincubated for 5 mins followed by [gamma-33P]ATP addition and measured after 60 mins by topcount scintillation counting method relative to control
Focal adhesion kinase 1 [3] = target: T1, Focal adhesion kinase 1 (Homo sapiens, UniProt Q05397); test: Inhibition of full-length N-terminal FLAG-tagged FAK (unknown origin) expressed in baculovirus expression system at 100 nM preincubated for 5 mins followed by ATP addition and measured after 60 mins by alphascreen assay relative to control
[4] = Drug level in Jcl-ICR mouse brain at 100 mg/kg, ip measured at 0.5 hrs by LC/MS/MS analysis; type: ADME, organism-based; conditions: read-out: Drug uptake
[5] = target: T2, ALK tyrosine kinase receptor (Homo sapiens, UniProt Q9UM73)
Description: Inhibition of human ALK kinase domain (1058 to 1620 residues) expressed in baculovirus expression system using biotin-poly-GT as substrate pre-incubated for 10 mins followed by ATP addition and measured after 60 mins by HTRF method

Mus musculus [6] = test: In-vivo inhibition of ALK in ICR mouse prefrontal cortex assessed as reduction in phosphorylated ALK level at 100 mg/kg, ip after 1 hr by Western blot analysis; type: functional, organism-based
[7] = target: Aurora kinase B (Homo sapiens) (UniProt Q96GD4); test: Inhibition of N-terminal His6-tagged AuroraB (unknown origin) expressed in baculovirus expression system at 100 nM using aurora peptide as substrate preincubated for 5 mins followed by [gamma-33P]ATP addition and measured after 60 mins by topcount scintillation counting method relative to control
[8] = Brain to plasma partition coefficient, Kp of the compound in Jcl-ICR mouse at 100 mg/kg, ip measured at 0.5 hrs by LC/MS/MS analysis; type: ADME, organism-based
[9] = target: T2, ALK tyrosine kinase receptor; type: cell-based, HEK293
Description: Inhibition of recombinant human ALK expressed in HEK293 cells assessed as reduction in ALK autophosphorylation at Tyr1604 residue incubated for 60 mins by sandwich ELISA

[10] = Fraction unbound in ICR mouse plasma at 1 umol/L measured for 20 hrs by equilibrium dialysis based LC-MS/MS analysis; type: ADME, cell-free; conditions: 1 µM
[11] = target: cAMP-dependent protein kinase catalytic subunit alpha (Homo sapiens) (UniProt P17612); test: Inhibition of PKA (unknown origin) expressed in Escherichia coli at 100 nM using PKA substrate peptide preincubated for 5 mins followed by [gamma-33P]ATP addition and measured after 10 mins by topcount scintillation counting method relative to control
[12] = target: Phosphatidylinositol 4,5-bisphosphate 3-kinase catalytic subunit alpha isoform (Homo sapiens) (UniProt P42336); test: Inhibition of PI3Kalpha (unknown origin) at 100 nM by [gamma-33P]ATP-based radiometric or Alphascreen assay relative to control
[13] = Unbound brain-to-plasma concentration ratio in Jcl-ICR mouse at 100 mg/kg, ip measured at 1 hr by LC/MS/MS analysis; type: ADME, organism-based; conditions: read-out: K(p,uu,brain)
[14] = target: Mitogen-activated protein kinase 14 (Homo sapiens) (UniProt Q16539); test: Inhibition of N-terminal FLAG-tagged p38alpha (unknown origin) expressed in baculovirus expression system at 100 nM using myelin basic protein as substrate preincubated for 5 mins followed by [gamma-33P]ATP addition and measured after 60 mins by topcount scintillation counting method relative to control
[15] = target: Serine/threonine-protein kinase Chk1 (Homo sapiens) (UniProt O14757); test: Inhibition of CHEK1 (unknown origin) at 100 nM by [gamma-33P]ATP-based radiometric or Alphascreen assay relative to control
[16] = Drug level in Jcl-ICR mouse plasma at 100 mg/kg, ip measured at 1 hr by LC/MS/MS analysis; type: ADME, organism-based
[17] = target: Hepatocyte growth factor receptor (Homo sapiens) (UniProt P08581); test: Inhibition of recombinant human N-terminal GST-fused/His6-tagged c-MET (956 to 1390 residues) expressed in baculovirus infected Spodoptera frugiperda cells at 100 nM preincubated for 5 mins followed by ATP addition and measured after 10 mins by alphascreen assay relative to control
[18] = target: Interleukin-1 receptor-associated kinase 4 (Homo sapiens) (UniProt Q9NWZ3); test: Inhibition of IRAK4 (unknown origin) at 100 nM by [gamma-33P]ATP-based radiometric or Alphascreen assay relative to control
[19] = Unbound brain-to-plasma concentration ratio in Jcl-ICR mouse at 100 mg/kg, ip measured at 0.5 hrs by LC/MS/MS analysis; type: ADME, organism-based; conditions: read-out: K(p,uu,brain)
[20] = target: Vascular endothelial growth factor receptor 2 (Homo sapiens) (UniProt P35968); test: Inhibition of N-terminal FLAG-tagged VEGFR2 (unknown origin) expressed in baculovirus expression system at 100 nM preincubated for 5 mins followed by ATP addition and measured after 10 mins by alphascreen assay relative to control
[21] = target: T3, High affinity nerve growth factor receptor (Homo sapiens, UniProt P04629); test: Inhibition of TRKA (unknown origin) at 100 nM by [gamma-33P]ATP-based radiometric or Alphascreen assay relative to control
[22] = target: Tyrosine-protein kinase JAK1 (Homo sapiens) (UniProt P23458); test: Inhibition of JAK1 (unknown origin) at 100 nM by [gamma-33P]ATP-based radiometric or Alphascreen assay relative to control
[23] = target: T3, High affinity nerve growth factor receptor; test: Inhibition of N-terminal GST-tagged human TrkA kinase domain (436 to 790 residues) expressed in baculovirus expression system using biotin-poly-GT as substrate pre-incubated for 5 mins followed by ATP addition and measured after 60 mins by alpha screen assay
Target sequence in this assay (P04629 whole entry): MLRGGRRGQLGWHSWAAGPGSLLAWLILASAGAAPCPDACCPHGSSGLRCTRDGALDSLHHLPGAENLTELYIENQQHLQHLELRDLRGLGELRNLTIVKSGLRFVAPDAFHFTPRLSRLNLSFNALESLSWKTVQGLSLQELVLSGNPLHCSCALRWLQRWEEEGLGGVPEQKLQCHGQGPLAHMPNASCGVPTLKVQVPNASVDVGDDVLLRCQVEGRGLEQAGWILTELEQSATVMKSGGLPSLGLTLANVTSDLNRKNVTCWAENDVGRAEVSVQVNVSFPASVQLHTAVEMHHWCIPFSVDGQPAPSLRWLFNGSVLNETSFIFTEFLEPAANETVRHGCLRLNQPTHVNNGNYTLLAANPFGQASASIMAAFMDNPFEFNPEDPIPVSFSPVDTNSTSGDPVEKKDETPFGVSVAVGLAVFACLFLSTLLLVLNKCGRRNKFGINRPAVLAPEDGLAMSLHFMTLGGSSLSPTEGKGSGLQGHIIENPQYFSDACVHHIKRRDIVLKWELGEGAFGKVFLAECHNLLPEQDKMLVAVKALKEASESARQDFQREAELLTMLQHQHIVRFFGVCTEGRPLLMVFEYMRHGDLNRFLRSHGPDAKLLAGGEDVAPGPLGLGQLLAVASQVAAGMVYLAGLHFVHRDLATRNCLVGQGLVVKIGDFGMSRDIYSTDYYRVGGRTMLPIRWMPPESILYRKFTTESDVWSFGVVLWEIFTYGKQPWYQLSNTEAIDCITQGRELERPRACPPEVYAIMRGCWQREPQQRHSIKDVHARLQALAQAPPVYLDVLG

[24] = Drug level in Jcl-ICR mouse plasma at 100 mg/kg, ip measured at 0.5 hrs by LC/MS/MS analysis; type: ADME, organism-based
[25] = target: Proto-oncogene tyrosine-protein kinase Src (Homo sapiens) (UniProt P12931); test: Inhibition of recombinant human full-length N-terminal His6-tagged SRC expressed in Sf21 insect cells at 100 nM preincubated for 5 mins followed by ATP addition and measured after 10 mins by alphascreen assay relative to control
Focal adhesion kinase 1 [26] = target: T1, Focal adhesion kinase 1; test: Inhibition of human FAK kinase domain (411 to 686 residues) expressed in baculovirus expression system using biotin-poly-GT as substrate pre-incubated for 10 mins followed by ATP addition and measured after 60 mins by HTRF method
[27] = Unbound brain-to-plasma concentration ratio in Jcl-ICR mouse at 100 mg/kg, ip measured at 2 hrs by LC/MS/MS analysis; type: ADME, organism-based; conditions: read-out: K(p,uu,brain)
[28] = Drug level in Jcl-ICR mouse brain at 100 mg/kg, ip measured at 2 hr by LC/MS/MS analysis; type: ADME, organism-based; conditions: read-out: Drug uptake
[29] = target: Casein kinase I isoform delta (Homo sapiens) (UniProt P48730); test: Inhibition of CK1delta (unknown origin) at 100 nM by [gamma-33P]ATP-based radiometric or Alphascreen assay relative to control
[30] = Brain to plasma partition coefficient, Kp of the compound in Jcl-ICR mouse at 100 mg/kg, ip measured at 1 hr by LC/MS/MS analysis; type: ADME, organism-based

T2 sequence (Q9UM73 whole entry): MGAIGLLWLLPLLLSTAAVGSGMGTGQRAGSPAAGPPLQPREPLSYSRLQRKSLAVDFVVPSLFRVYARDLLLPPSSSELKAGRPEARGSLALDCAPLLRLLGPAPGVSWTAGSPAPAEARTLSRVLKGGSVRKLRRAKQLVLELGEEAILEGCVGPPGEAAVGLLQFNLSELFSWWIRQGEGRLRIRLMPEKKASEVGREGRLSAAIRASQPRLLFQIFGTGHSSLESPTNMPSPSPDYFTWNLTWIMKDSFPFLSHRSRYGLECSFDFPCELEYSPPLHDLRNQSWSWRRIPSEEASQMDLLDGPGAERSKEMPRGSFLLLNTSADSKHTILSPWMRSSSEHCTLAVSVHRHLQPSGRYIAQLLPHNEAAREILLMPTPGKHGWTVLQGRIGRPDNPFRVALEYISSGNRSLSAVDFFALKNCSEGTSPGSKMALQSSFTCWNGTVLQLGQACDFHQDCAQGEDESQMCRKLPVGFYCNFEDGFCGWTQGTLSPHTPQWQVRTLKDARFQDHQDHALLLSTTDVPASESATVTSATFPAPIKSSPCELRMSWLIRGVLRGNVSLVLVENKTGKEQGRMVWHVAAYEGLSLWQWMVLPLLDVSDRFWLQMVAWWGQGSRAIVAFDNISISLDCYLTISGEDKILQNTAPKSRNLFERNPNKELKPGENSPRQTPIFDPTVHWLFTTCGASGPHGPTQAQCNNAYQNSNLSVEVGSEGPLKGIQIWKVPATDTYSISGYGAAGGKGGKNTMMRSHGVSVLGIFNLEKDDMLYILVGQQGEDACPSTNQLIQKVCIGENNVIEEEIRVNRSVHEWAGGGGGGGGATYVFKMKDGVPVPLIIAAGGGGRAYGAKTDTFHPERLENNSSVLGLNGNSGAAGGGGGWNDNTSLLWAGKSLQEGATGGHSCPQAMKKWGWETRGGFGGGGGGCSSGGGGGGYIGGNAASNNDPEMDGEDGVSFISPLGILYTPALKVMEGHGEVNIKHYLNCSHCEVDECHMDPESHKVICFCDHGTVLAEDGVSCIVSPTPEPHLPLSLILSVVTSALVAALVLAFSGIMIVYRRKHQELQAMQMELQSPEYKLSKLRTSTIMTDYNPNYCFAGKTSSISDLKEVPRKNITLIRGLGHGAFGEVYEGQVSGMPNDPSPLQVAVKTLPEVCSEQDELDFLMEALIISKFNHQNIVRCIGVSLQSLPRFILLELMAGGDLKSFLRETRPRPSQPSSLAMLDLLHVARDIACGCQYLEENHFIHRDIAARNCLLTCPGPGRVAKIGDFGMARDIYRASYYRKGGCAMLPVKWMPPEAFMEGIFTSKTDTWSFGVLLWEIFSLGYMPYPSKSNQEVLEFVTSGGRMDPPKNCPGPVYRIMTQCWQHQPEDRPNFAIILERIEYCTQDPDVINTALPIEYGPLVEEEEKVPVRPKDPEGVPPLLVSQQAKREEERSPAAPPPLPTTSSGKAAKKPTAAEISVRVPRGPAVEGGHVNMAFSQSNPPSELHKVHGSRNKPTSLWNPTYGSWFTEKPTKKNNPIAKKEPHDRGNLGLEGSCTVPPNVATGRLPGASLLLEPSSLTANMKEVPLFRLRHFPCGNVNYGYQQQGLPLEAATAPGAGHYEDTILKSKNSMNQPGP
Sequence of Phosphatidylinositol 4,5-bisphosphate 3-kinase catalytic subunit alpha isoform (Homo sapiens) (P42336 whole entry, canonical isoform): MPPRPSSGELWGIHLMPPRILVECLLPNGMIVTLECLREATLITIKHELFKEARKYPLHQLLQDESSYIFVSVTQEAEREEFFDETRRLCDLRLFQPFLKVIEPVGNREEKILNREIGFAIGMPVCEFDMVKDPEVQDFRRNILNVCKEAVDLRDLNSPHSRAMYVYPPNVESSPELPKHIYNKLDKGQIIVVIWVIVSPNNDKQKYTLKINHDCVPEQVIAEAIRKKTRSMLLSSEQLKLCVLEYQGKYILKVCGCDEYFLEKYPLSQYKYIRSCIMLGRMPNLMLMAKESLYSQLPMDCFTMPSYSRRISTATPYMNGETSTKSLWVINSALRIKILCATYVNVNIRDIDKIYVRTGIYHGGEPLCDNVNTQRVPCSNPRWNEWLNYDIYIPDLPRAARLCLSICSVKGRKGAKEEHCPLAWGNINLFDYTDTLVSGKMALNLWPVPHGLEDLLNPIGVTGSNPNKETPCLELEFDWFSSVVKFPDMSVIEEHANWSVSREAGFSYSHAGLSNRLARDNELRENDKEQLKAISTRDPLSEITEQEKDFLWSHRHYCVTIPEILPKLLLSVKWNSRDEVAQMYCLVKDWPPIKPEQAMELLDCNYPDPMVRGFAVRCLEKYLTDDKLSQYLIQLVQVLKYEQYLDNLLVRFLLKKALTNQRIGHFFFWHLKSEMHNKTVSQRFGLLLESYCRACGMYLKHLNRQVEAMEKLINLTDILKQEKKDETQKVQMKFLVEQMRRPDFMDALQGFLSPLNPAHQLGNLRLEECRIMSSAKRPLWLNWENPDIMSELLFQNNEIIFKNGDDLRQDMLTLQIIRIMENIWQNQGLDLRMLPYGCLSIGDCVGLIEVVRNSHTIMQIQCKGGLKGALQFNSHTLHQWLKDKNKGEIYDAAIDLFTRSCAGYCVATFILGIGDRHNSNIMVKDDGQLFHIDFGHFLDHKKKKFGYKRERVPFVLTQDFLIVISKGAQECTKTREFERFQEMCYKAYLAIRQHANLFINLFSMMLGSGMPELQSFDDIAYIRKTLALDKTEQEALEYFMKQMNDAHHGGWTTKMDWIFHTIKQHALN
Sequence of Tyrosine-protein kinase JAK1 (Homo sapiens) (P23458 whole entry, the tested form may be a part): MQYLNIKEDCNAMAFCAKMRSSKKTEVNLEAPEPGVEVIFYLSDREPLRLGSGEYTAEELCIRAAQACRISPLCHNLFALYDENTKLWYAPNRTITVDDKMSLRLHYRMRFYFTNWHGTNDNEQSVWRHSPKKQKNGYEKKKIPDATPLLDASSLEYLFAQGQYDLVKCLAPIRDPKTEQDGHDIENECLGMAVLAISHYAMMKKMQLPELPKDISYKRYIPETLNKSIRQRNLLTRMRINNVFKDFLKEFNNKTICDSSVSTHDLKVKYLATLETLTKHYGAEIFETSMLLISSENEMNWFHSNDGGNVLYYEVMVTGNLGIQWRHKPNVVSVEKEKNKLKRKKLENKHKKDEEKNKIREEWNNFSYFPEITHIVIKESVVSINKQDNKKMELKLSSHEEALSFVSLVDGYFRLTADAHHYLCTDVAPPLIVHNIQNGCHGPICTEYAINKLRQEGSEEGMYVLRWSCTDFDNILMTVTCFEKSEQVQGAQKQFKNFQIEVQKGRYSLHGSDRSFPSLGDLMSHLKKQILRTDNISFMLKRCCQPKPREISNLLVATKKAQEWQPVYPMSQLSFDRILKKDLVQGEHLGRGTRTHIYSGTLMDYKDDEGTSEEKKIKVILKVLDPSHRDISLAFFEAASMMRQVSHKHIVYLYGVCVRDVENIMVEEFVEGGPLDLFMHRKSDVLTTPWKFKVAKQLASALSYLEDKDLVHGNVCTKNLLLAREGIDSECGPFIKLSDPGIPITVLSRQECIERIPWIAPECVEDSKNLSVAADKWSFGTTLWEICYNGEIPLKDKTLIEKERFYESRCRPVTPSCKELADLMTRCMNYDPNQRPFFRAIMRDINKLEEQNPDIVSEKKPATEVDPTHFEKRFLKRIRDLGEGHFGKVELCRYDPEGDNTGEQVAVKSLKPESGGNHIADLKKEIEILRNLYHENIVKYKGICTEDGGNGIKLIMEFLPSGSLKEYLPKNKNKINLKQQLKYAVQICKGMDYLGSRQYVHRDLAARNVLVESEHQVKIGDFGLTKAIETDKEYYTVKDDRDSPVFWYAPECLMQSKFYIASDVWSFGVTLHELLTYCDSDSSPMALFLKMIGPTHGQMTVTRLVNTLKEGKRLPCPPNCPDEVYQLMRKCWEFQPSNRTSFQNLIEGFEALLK
Sequence of Casein kinase I isoform delta (Homo sapiens) (P48730 whole entry, looked up, canonical isoform): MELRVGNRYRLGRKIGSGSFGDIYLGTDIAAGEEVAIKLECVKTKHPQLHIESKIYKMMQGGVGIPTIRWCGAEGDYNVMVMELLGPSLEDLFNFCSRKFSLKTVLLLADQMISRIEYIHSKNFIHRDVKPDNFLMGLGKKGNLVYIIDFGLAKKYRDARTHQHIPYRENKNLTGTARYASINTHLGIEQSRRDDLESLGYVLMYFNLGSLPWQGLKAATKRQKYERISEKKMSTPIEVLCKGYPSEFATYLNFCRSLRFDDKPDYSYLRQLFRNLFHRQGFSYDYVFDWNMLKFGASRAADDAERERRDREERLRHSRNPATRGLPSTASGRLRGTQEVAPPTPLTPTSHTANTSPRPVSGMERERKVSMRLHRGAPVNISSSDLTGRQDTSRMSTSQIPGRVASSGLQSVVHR

In the case of `Cc1cc(-n2cc(C(=O)N3CCO[C@@H](C)C3)c3ccc(O[C@@H](C)c4ccc(F)cn4)nc32)n[nH]1`, the inhibition (Mus musculus [1]) is reported as “Dose-dependent effect”, the inhibition [2] is reported as 3% and the inhibition (Focal adhesion kinase 1 [3]) is reported as 83%. The concentration at 0.5 h [4] was 33000 ng/mL, the IC50 [5] was 2.9 nM and the inhibition (Mus musculus [6]) was “Active”. It also gave an inhibition [7] of 21%, a Kp at 0.5 h [8] of 1.26 and an IC50 [9] of 27 nM. The Fu [10] was 0.08%, the inhibition [11] was 12% and the inhibition [12] was -2%. For the same compound, the Kp uu at 1 h [13] was 0.27, the inhibition [14] was -4% and the inhibition [15] was -9%. It also gave a concentration at 1 h [16] of 26200 ng/mL, an inhibition [17] of -5% and an inhibition [18] of -7%. For the same compound, the Kp uu at 0.5 h [19] was 0.27, the inhibition [20] was 2% and the inhibition [21] was 9%. For the same compound, the inhibition [22] was -8%, the IC50 [23] was 2600 nM and the concentration at 0.5 h [24] was 26200 ng/mL. It also gave an inhibition [25] of -2%, an IC50 (Focal adhesion kinase 1 [26]) of 25 nM and a Kp uu at 2 h [27] of 0.11. It also gave a concentration at 2 h [28] of 10300 ng/mL, an inhibition [29] of 6% and a Kp at 1 h [30] of 1.28.
